Legend:
[1] = target: T1, SMARCA2 (Homo sapiens, UniProt P51531); assay: SMARCA2 HiBiT degradation assay in HeLa cells; type: cell-based; settings: 18 hours, highest concentration 10 μM
T1 construct: SMARCA2-HiBiT knock-in Hela monoclonal cell (CS302366); host or cells: HeLa monoclonal cells with heterozygous HiBiT knock-in at the endogenous SMARCA2 locus
How it was run: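 Degradation was read as Nano-Glo HiBiT lytic luminescence (30-60 min, RT) and fitted to curves. Compounds in 3-fold dilutions up to 10 μM were applied for 18 h at 37 °C. Cells were 2500/well monoclonal HeLa with a heterozygous C-terminal HiBiT tag on SMARCA2.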

[2] = target: T2, SMARCA4 (Homo sapiens, UniProt P51532); assay: SMARCA4 HiBiT degradation assay in HeLa cells; type: cell-based; settings: 18 hours, highest concentration 10 μM
T2 construct: SMARCA4-HiBiT knock-in Hela monoclonal cell (CS3023226); host or cells: HeLa monoclonal cells with heterozygous HiBiT knock-in at the endogenous SMARCA4 locus
T2 sequence (P51532 whole entry): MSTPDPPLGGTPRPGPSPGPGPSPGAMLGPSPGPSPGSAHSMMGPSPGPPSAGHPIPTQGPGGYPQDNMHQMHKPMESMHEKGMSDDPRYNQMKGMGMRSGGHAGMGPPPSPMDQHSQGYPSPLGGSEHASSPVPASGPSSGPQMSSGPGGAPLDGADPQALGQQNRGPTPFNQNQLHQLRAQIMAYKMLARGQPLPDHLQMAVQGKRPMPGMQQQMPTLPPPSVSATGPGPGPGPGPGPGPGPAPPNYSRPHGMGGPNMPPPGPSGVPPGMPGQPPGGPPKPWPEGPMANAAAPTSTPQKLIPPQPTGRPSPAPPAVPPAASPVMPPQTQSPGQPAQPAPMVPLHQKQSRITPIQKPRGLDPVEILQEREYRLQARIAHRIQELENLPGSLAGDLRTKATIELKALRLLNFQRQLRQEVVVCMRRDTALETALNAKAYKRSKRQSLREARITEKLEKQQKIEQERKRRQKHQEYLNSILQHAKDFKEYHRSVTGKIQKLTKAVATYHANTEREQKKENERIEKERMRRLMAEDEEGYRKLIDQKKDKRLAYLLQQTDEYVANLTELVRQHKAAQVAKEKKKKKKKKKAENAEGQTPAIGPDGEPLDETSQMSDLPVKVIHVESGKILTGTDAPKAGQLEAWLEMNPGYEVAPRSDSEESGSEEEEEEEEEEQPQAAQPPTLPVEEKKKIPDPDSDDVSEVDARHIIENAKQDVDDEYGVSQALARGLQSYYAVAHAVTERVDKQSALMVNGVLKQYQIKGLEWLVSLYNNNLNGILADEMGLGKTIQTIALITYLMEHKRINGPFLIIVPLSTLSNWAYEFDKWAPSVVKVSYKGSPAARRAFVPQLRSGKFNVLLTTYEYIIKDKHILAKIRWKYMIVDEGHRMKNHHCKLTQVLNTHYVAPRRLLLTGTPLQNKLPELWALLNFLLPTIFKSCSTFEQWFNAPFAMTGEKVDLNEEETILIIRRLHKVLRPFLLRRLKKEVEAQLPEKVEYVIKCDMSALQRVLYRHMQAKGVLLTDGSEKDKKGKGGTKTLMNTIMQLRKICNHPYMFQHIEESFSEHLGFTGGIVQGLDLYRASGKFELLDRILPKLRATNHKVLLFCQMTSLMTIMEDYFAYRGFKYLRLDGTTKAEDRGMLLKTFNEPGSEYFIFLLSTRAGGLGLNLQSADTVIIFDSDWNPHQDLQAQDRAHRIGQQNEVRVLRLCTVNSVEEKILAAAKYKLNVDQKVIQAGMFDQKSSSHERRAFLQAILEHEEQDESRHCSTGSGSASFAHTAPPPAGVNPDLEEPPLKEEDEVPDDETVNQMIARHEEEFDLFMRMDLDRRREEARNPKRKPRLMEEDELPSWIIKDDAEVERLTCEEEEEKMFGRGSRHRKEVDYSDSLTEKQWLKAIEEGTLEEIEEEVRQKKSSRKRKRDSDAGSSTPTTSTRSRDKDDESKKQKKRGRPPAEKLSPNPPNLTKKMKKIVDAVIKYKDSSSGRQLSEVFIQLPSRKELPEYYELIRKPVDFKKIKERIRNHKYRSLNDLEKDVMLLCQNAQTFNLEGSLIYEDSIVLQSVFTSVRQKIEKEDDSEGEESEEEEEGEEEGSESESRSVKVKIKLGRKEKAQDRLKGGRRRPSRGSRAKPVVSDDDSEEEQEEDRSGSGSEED
How it was run: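 HeLa monoclonal cells with HiBiT knocked into SMARCA4 were seeded at 2500 cells/well, dosed with compound and incubated 18 hours at 37° C. HiBiT signal reported remaining SMARCA4 protein, and values came from curve fitting.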

T1 sequence (P51531 whole entry): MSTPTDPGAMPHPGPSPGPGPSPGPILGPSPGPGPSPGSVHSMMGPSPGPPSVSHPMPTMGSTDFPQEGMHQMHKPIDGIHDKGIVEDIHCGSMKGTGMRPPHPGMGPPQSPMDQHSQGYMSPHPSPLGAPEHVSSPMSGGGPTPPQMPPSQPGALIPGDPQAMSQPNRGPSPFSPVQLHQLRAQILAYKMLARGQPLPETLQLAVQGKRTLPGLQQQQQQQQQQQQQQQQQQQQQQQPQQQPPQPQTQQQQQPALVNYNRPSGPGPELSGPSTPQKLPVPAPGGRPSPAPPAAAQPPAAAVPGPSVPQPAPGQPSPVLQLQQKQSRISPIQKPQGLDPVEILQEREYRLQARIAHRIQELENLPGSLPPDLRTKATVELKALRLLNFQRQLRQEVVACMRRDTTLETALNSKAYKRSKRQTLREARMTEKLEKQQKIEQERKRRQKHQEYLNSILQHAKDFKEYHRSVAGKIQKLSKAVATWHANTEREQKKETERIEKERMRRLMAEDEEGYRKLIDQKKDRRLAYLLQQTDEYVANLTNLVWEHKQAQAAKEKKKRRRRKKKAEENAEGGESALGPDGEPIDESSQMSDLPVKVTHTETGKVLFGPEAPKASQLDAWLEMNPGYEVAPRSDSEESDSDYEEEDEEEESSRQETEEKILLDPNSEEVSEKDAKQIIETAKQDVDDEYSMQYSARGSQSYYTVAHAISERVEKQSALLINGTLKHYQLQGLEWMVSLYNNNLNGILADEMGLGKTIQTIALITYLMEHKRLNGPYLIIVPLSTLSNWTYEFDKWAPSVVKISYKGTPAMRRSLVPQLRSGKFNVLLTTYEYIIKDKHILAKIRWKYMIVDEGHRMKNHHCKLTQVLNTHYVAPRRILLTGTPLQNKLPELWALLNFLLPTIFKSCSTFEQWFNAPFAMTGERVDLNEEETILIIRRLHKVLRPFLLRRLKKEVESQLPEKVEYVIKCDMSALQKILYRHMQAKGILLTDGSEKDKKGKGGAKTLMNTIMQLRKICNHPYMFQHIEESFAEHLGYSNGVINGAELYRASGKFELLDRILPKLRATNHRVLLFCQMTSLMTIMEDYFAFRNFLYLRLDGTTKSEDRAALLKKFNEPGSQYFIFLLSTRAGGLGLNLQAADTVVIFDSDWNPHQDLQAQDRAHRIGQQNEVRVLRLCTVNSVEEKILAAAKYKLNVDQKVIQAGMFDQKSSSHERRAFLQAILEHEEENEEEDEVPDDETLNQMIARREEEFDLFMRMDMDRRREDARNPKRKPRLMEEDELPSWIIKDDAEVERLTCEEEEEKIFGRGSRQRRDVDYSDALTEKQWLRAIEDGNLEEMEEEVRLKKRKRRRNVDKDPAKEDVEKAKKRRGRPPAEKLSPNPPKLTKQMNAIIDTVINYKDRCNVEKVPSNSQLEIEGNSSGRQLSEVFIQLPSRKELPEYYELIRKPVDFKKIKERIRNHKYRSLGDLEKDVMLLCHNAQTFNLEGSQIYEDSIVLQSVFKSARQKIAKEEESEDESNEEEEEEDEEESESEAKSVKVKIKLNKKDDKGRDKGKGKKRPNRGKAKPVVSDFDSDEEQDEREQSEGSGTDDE

SMILES	DC50 [1]	Dmax [1]	DC50 [2]	Dmax [2]
Cc1cc(O[C@@H]2C[C@H]3CNc4nnc(-c5cccc(F)c5O)cc4N3C2)ccc1CN1CCC(c2ccc3c(c2)C(=O)N(C2CCC(=O)NC2=O)C3)CC1 (stereo partly drawn) [Example 37, 3-(6-(1-(4-(((6aS,8R)-2-(3-fluoro-2-hydroxyphenyl)-5,6,6a,7,8,9-hexahydropyrrolo[1′,2′:4,5]pyrazino[2,3-c]pyridazin-8-yl)oxy)-2-methylbenzyl)piperidin-4-yl)-1-oxoisoindolin-2-yl)piperidine-2,6-dione]	< 100 nM	> 75%	< 100 nM	> 75%
Cc1cc(S[C@@H]2C[C@@H]3CNc4nnc(-c5cc(F)cc(F)c5O)cc4N3C2)ncc1CN1CCN(c2ccc3c(c2)C(=O)N([C@H]2CCC(=O)NC2=O)C3)CC1 [Example 38, (S)-3-(6-(4-((6-(((6aR,8R)-2-(3,5-difluoro-2-hydroxyphenyl)-5,6,6a,7,8,9-hexahydropyrrolo[1′,2′:4,5]pyrazino[2,3-c]pyridazin-8-yl)thio)-4-methylpyridin-3-yl)methyl)piperazin-1-yl)-1-oxoisoindolin-2-yl)piperidine-2,6-dione]	< 100 nM	> 75%	> 1000 nM	< 50%
O=C1CCC(N2Cc3ccc(N4CCC(Cn5cc(O[C@@H]6C[C@@H]7CNc8nnc(-c9cc(F)cc(F)c9O)cc8N7C6)cn5)CC4)cc3C2=O)C(=O)N1 (stereo partly drawn) [Example 39, 3-(6-(4-((4-(((6aR,8R)-2-(3,5-difluoro-2-hydroxyphenyl)-5,6,6a,7,8,9-hexahydropyrrolo[1′,2′:4,5]pyrazino[2,3-c]pyridazin-8-yl)oxy)-1H-pyrazol-1-yl)methyl)piperidin-1-yl)-1-oxoisoindolin-2-yl)piperidine-2,6-dione]	> 1000 nM	–	> 1000 nM	–
Cc1nc(CN2CCN(c3ccc4c(c3)C(=O)N(C3CCC(=O)NC3=O)C4)CC2)cnc1O[C@H]1CN2c3cc(-c4cccc(F)c4O)nnc3NC[C@]2(C(F)F)C1 (stereo partly drawn) [Example 40, 3-(6-(4-((5-(((6aS,8R)-6a-(difluoromethyl)-2-(3-fluoro-2-hydroxyphenyl)-5,6,6a,7,8,9-hexahydropyrrolo[1′,2′:4,5]pyrazino[2,3-c]pyridazin-8-yl)oxy)-6-methylpyrazin-2-yl)methyl)piperazin-1-yl)-1-oxoisoindolin-2-yl)piperidine-2,6-dione]	< 100 nM	> 75%	100 to 1000 nM	< 50%
Cc1nc(O[C@H]2CN3c4cc(-c5cccc(F)c5O)nnc4NC[C@]3(C(F)F)C2)nc(C)c1CN1CCN(c2ccc3c(c2)C(=O)N(C2CCC(=O)NC2=O)C3)CC1 (stereo partly drawn) [Example 41, 3-(6-(4-((2-(((6aS,8R)-6a-(Difluoromethyl)-2-(3-fluoro-2-hydroxy-phenyl)-5,6,6a,7,8,9-hexahydropyrrolo [1′,2′:4,5]pyrazino[2,3-c]pyridazin-8-yl)oxy)-4,6-dimethylpyrimidin-5-yl)methyl)piperazin-1-yl)-1-oxoisoindolin-2-yl)piperidine-2,6-dione]	< 100 nM	> 75%	100 to 1000 nM	< 50%
O=C1CCC(N2Cc3ccc(N4CCN(Cc5cnc(O[C@H]6CN7c8cc(-c9cccc(F)c9O)nnc8NC[C@]7(C(F)F)C6)nc5)CC4)cc3C2=O)C(=O)N1 (stereo partly drawn) [Example 42, 3-(6-(4-((2-(((6aS,8R)-6a-(difluoromethyl)-2-(3-fluoro-2-hydroxyphenyl)-5,6,6a,7,8,9-hexahydropyrrolo [1%2′:4,5]pyrazino[2,3-c]pyridazin-8-yl)oxy)pyrimidin-5-yl)methyl)piperazin-1-yl)-1-oxoisoindolin-2-yl)piperidine-2,6-dione]	< 100 nM	> 75%	> 1000 nM	< 50%
O=C1CC[C@H](N2Cc3ccc(N4CCN(Cc5ccc(O[C@H]6CN7c8cc(-c9cccc(F)c9O)nnc8NC[C@@]7(C(F)F)C6)nc5)CC4)cc3C2=O)C(=O)N1 [Example 43, (S)-3-(6-(4-((6-(((6aR,8R)-6a-(difluoromethyl)-2-(3-fluoro-2-hydroxyphenyl)-5,6,6a,7,8,9-hexahydropyrrolo[1′,2′:4,5]pyrazino[2,3-c]pyridazin-8-yl)oxy)pyridin-3-yl)methyl)piperazin-1-yl)-1-oxoisoindolin-2-yl)piperidine-2,6-dione]	< 100 nM	> 75%	> 1000 nM	< 50%
CCc1cc(CN2CCN(c3ccc4c(c3)C(=O)N([C@H]3CCC(=O)NC3=O)C4)CC2)cnc1O[C@H]1CN2c3cc(-c4cccc(F)c4O)nnc3NC[C@@]2(C(F)F)C1 [Example 44, (S)-3-(6-(4-((6-(((6aR,8R)-6a-(difluoromethyl)-2-(3-fluoro-2-hydroxyphenyl)-5,6,6a,7,8,9-hexahydropyrrolo[1′,2′:4,5]pyrazino[2,3-c]pyridazin-8-yl)oxy)-5-ethylpyridin-3-yl)methyl)piperazin-1-yl)-1-oxoisoindolin-2-yl)piperidine-2,6-dione]	< 100 nM	> 75%	100 to 1000 nM	–

The next lines start with the values.

DC50 [1]	Dmax [1]	DC50 [2]	Dmax [2]	SMILES
< 100 nM	50 to 75%	> 1000 nM	< 50%	Cc1c(O[C@H]2CN3c4cc(-c5cccc(F)c5O)nnc4NC[C@@]3(C(F)F)C2)cnc(CN2CCN(c3ccc4c(c3)C(=O)N([C@H]3CCC(=O)NC3=O)C4)CC2)c1F [Example 45, (S)-3-(6-(4-((5-(((6aR,8R)-6a-(difluoromethyl)-2-(3-fluoro-2-hydroxyphenyl)-5,6,6a,7,8,9-hexahydropyrrolo[1′,2′:4,5]pyrazino[2,3-c]pyridazin-8-yl)oxy)-3-fluoro-4-methylpyridin-2-yl)methyl)piperazin-t-yl)-1-oxoisoindolin-2-yl)piperidine-2,6-dione]
< 100 nM	> 75%	< 100 nM	> 75%	Cc1c(O[C@H]2CN3c4cc(-c5cccc(F)c5O)nnc4NC[C@]3(C(F)F)C2)cnc(CN2CCN(c3ccc4c(c3)C(=O)N([C@H]3CCC(=O)NC3=O)C4)CC2)c1C [Example 46, (S)-3-(6-(4-((5-(((6aS,8R)-6a-(difluoromethyl)-2-(3-fluoro-2-hydroxyphenyl)-5,6,6a,7,8,9-hexahydropyrrolo [1′,2′:4,5]pyrazino[2,3-c]pyridazin-8-yl)oxy)-3,4-dimethylpyridin-2-yl)methyl)piperazin-1-yl)-1-oxoisoindolin-2-yl)piperidine-2,6-dione]
< 100 nM	> 75%	< 100 nM	> 75%	CCc1cc(CN2CCN(c3ccc4c(c3)C(=O)N([C@H]3CCC(=O)NC3=O)C4)CC2)cnc1O[C@H]1CN2c3cc(-c4cccc(F)c4O)nnc3NC[C@]2(C(F)F)C1 [Example 47, (S)-3-(6-(4-((6-(((6aS,8R)-6a-(difluoromethyl)-2-(3-fluoro-2-hydroxyphenyl)-5,6,6a,7,8,9-hexahydropyrrolo [1′,2′:4,5]pyrazino[2,3-c]pyridazin-8-yl)oxy)-5-ethylpyridin-3-yl)methyl)piperazin-1-yl)-1-oxoisoindolin-2-yl)piperidine-2,6-dione]
< 100 nM	50 to 75%	100 to 1000 nM	< 50%	Cc1nc(O[C@H]2CN3c4cc(-c5cccc(F)c5O)nnc4NC[C@]3(C(F)F)C2)c(C)nc1CN1CCN(c2ccc3c(c2)C(=O)N([C@H]2CCC(=O)NC2=O)C3)CC1 [Example 48, (S)-3-(6-(4-((5-(((6aS,8R)-6a-(difluoromethyl)-2-(3-fluoro-2-hydroxyphenyl)-5,6,6a,7,8,9-hexahydropyrrolo[1′,2′:4,5]pyrazino[2,3-c]pyridazin-8-yl)oxy)-3,6-dimethylpyrazin-2-yl)methyl)piperazin-1-yl)-1-oxoisoindolin-2-yl)piperidine-2,6-dione]
< 100 nM	> 75%	100 to 1000 nM	< 50%	O=C1CC[C@H](N2Cc3ccc(N4CCN(Cc5ccc(O[C@H]6CN7c8cc(-c9cccc(F)c9O)nnc8NC[C@]7(C(F)F)C6)cn5)CC4)cc3C2=O)C(=O)N1 [Example 49, (S)-3-(6-(4-((5-(((6aS,8R)-6a-(difluoromethyl)-2-(3-fluoro-2-hydroxyphenyl)-5,6,6a,7,8,9-hexahydropyrrolo [1′,2′:4,5]pyrazino[2,3-c]pyridazin-8-yl)oxy)pyridin-2-yl)methyl)piperazin-1-yl)-1-oxoisoindolin-2-yl)piperidine-2,6-dione]
< 100 nM	> 75%	< 100 nM	50 to 75%	CC(C)c1nc(O[C@H]2CN3c4cc(-c5cccc(F)c5O)nnc4NC[C@]3(C(F)F)C2)ncc1CN1CCN(c2ccc3c(c2)C(=O)N(C2CCC(=O)NC2=O)C3)CC1 (stereo partly drawn) [Example 50, 3-(6-(4-((2-(((6aS,8R)-6a-(difluoromethyl)-2-(3-fluoro-2-hydroxyphenyl)-5,6,6a,7,8,9-hexahydropyrrolo [1′,2′:4,5]pyrazino[2,3-c]pyridazin-8-yl)oxy)-4-isopropylpyrimidin-5-yl)methyl)piperazin-1-yl)-1-oxoisoindolin-2-yl)piperidine-2,6-dione]
< 100 nM	> 75%	> 1000 nM	< 50%	Cc1nc(O[C@H]2CN3c4cc(-c5cccc(F)c5O)nnc4NC[C@]3(C(F)F)C2)cnc1CN1CCN(c2ccc3c(c2)C(=O)N(C2CCC(=O)NC2=O)C3)CC1 (stereo partly drawn) [Example 51, 3-(6-(4-((5-(((6aS,8R)-6a-(difluoromethyl)-2-(3-fluoro-2-hydroxyphenyl)-5,6,6a,7,8,9-hexahydropyrrolo[1′,2′:4,5]pyrazino[2,3-c]pyridazin-8-yl)oxy)-3-methylpyrazin-2-yl)methyl)piperazin-1-yl)-1-oxoisoindolin-2-yl)piperidine-2,6-dione]

Source: patent US20240165244A1 (Prelude Therapeutics Incorporated, priority 2022, published 2024)
